From US20080206287A1, “Use of cyclosporin A to sensitize resistant cancer cells to death receptor ligands” (priority 2006, published 2008)

Legend:
Type in all cases: cell-based
PPC-1 cells [1] = experiment: Apoptosis of PPC-1 cells transfected with CrmA or Bcl-XL; conditions: for protection by Bcl-XL against apoptosis induced by CH-11 plus compound: PPC-1 cells transfected with Bcl-XL; for protection by CrmA against apoptosis induced by CH-11 plus compound: PPC-1 cells transfected with CrmA
Procedure: Cell transfections. PPC-1 cells (2×10^5) were seeded in 35 mm diameter plates in RPMI with 10% FCS. The next day the cells were co-transfected using Lipofectamine Plus (Invitrogen, Carlsbad, Calif.) with 0.5 μg GFP-encoding plasmid pEGFP (Invitrogen) in combination with […] of plasmids encoding Bcl-XL, the viral caspase-8 inhibitor Crm A, or empty vector. At 2 days post-transfection, cells were incubated with various concentrations of CH-11 antibody and the test compounds for 24 hours, then the percentage apoptosis was scored by UV-microscopic analysis of the GFP-positive cells, counting a minimum of 200 cells. Cells that had rounded up and were floating in the medium were counted as non-viable, while cells that remained adherent to the plate with normal morphological features were counted as viable.
To further address the specificity of the compounds for the extrinsic pathway, the effects of selective apoptosis inhibitory genes were examined. For these experiments, PPC-1 cells were transfected with plasmids encoding CrmA, a viral protein that blocks the extrinsic pathway by inhibiting caspase-8 (Zhou et al., J. Biol. Chem. 272:7797-7800, 1997) or encoding Bcl-xL, a mitochondria-targeting protein that blocks the intrinsic pathway by inhibiting release of cytochrome c (Boise et al., Cell 74:597-608, 1993; Kharbanda et al., Proc. Natl. Acad. Sci. USA 94:6939-6942, 1997). After transfection, cells were treated with CH-11 antibody and compounds 6094911, 5809354, or […] scoring the percentage of apoptotic cells among the successfully transfected cells as determined by co-transfection of a GFP-marker plasmid.

PPC-1 cells [2] = experiment: PPC-1 cell viability (MTT) with or without CH-11 anti-FAS antibody; conditions: for direct toxicity: compound alone, concentrations up to 80 μM
Procedure: High throughput screening. Screens were performed using a fully integrated, programmable robotic liquid handling system (Biomek® FX, Beckman-Coulter Inc., Fullerton, Calif.), with integrated plate reader (LJL analyst HT 96-384, Sunnyvale, Calif.) and environmentally controlled plate carousel set at 37° C. and 5% CO2:95% air. PPC-1 cells (1×10^4) were seeded overnight into 96 well, flat-bottom plates (Costar, Cambridge, Mass.) in 100 μL of medium containing 2.5% FCS. The next day, aliquots from the 50,000 compound Diversa library were added at a final concentration of 7.5 μg/mL (about 25 μM) in a final concentration of 0.5% (v:v) dimethylsulfoxide (DMSO). CH-11 antibody (100 ng/mL) was then added, and the cells were incubated for 24 hours before assessing cell viability by a 3-(4,5-Dimethylthiazol-2-yl)-2,5-diphenyltetrazolium Bromide (MTT) dye reduction assay (Sigma).
Cell death assays. Cell viability was measured by MTT and MTS assays, essentially as described in Schimmer et al. (Cancer Cell 5:25-35, 2004). Absorbance readings were plotted against a standard curve to derive the corresponding cell number, and cell viability was expressed as a percentage relative to untreated cells. Apoptosis was measured by flow cytometric analysis of Annexin V surface expression after staining cells with FITC-anti-Annexin V and propidium iodide (PI) (Biovision, Mountain View, Calif.), as described in Pedersen et al. (Blood 100:2965-72, 2002).
Statistics. Cytotoxicity induced by compounds used in combination with conventional agents (e.g., CH-11, TRAIL, VP-16 and staurosporine) was evaluated for evidence of synergy toxicity by comparing the slopes of the dose-response curves. If the combination of the potential sensitizing compound with the conventional agent increased the slope of the dose-response curve compared to the slopes of either the sensitizer or the conventional agent alone, then the interaction was considered synergistic. […] Statistical significance was defined as a p<0.01, using two-sided tests. Synergy was confirmed by performing multiple drug dose-effect calculations using the Median Effect methods as described in Chou (“The Median-Effect Principle and the Combination Index for Quantitation of Synergism and Antagonism.” In: D. C. Rideout and T. C. Chou (eds.), Synergism and Antagonism in Chemotherapy, pp. 61-102: Academic Press, Inc., 1991).
Identification of small molecule FAS sensitizers. Resistance to death receptor ligands may permit malignant cells to escape immune surveillance and limit the clinical efficacy of recombinant death receptor ligands such as TRAIL. To identify small molecules that restore sensitivity to death receptor ligands, a cell-based high throughput screen was performed using the FAS and TRAIL-resistant prostate cancer cell line PPC-1 and a commercially available 50,000 compound library. The screens were performed in 96 well plates, to which compounds were added at 7.5 μg/ml (about 25 μM), followed by agonistic anti-FAS monoclonal antibody CH-11 (100 ng/mL). Cell viability was measured 24 hours later by MTT assay. […] The coefficient of variation (CV) for PPC-1 cells treated with CH-11 alone was determined to be 5%, based on 90 replicate determinations. A 50% decrease in cell viability was used as a cut-off for scoring hits.
From the primary screen of 50,000 compounds, 313 reproducible hits were obtained. To determine whether any of the 313 compounds were toxic molecules as opposed to FAS-sensitizers, the 313 compounds were evaluated in secondary screens where PPC-1 cells were treated with increasing concentrations of the compounds in the presence or absence of CH-11 antibody. Through these secondary screens, nine sensitizers were identified that increased CH-11-mediated killing above the cell death produced by treatment of the cells with the compound alone (Table 1). […]

FAS or TRAIL receptors = experiment: Surface expression of death receptors by flow cytometry; conditions: PPC-1 cells
Source text: Furthermore, since these compounds sensitize to both FAS and TRAIL, they presumably act distal to death receptors.

[3] = system: OVCAR-3 and T47D tumor lines; experiment: Extrinsic versus intrinsic pathway stimuli in further tumor lines

Row | Structure (SMILES) | protection by Bcl-XL against apoptosis induced by CH-11 plus compound (PPC-1 cells [1]) | protection by CrmA against apoptosis induced by CH-11 plus compound (PPC-1 cells [1]) | direct toxicity (PPC-1 cells [2]; PPC-1 cells) | surface expression of FAS or TRAIL receptors (FAS or TRAIL receptors) | sensitization to extrinsic versus intrinsic pathway stimuli [3] | EC50 (PPC-1 cells [2]; Homo sapiens, PPC-1, PPC1 cells with anti-FAS antibody, read-out: EC50 as a FAS-sensitizer in PPC1 cells) [µM] | potency as a FAS-sensitizer relative to 5541203 (PPC-1 cells [2]; PPC1 cells) | toxicity when added alone relative to 5541203 (PPC-1 cells [2]; PPC1 cells, without anti-FAS antibody) | synergy with CH-11, median-dose combination index (CI) (PPC-1 cells [2]; PPC-1 cells, combined with CH-11)
1 | CC(=O)CC(=O)Nc1ccc(Cl)c(C(F)(F)F)c1 [compound 6094911, N-[4-chloro-3-(trifluoromethyl)phenyl]-3-oxobutanamide] | no protective effect | almost completely protected | little direct toxicity | did not change | confirming that the results are not unique to PPC-1 cells |  |  |  | 
2 | O=C(CCCOc1ccc(Cl)cc1Cl)NO [compound 5809354, 4-(2,4-dichlorophenoxy)-N-hydroxybutanamide] | no protective effect | almost completely protected | little direct toxicity | did not change | confirming that the results are not unique to PPC-1 cells |  |  |  | 
3 | CCn1c(=N)n(CC(=O)c2cc(C(C)(C)C)c(O)c(C(C)(C)C)c2)c2ccccc21 [compound 5569100, 1-(3,5-Di-tert-butyl-4-hydroxy-phenyl)-2-(3-ethyl-2-imino-2,3-dihydro-benzoimidazol-1-yl)-ethanone] | no protective effect | almost completely protected |  | did not change | confirming that the results are not unique to PPC-1 cells | 5.6 | approximately 5 times | three times more toxic | did not demonstrate synergy
